Assay [1] addresses T1, human FPR2 receptors (Homo sapiens, UniProt P25090).
T1 sequence (P25090 1-351): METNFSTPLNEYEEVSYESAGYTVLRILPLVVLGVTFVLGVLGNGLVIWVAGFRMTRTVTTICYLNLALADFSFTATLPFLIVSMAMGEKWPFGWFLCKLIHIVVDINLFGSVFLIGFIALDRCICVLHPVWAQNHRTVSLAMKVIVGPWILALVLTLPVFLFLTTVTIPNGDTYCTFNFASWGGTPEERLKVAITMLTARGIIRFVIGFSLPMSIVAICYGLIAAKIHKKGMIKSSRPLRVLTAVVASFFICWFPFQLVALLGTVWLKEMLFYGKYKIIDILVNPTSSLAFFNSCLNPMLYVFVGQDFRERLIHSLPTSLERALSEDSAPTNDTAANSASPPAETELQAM
Put plainly: FPR2 cyclic adenosine monophosphate (cAMP) assay. The conditions noted are these: CHO cells overexpressing human FPR2; forskolin 5 μM, IBMX 200 μM; 30 min at rt; inhibition of cAMP production (HTRF); read-out: hFPR2 cAMP2 EC50. In kind it is cell-based. The source says:
(§1) N-formyl peptide receptors (FPRs) are a family of chemo attractant receptors that facilitate leukocyte response during inflammation. FPRs belong to the seven-transmembrane G protein-coupled receptor superfamily and are linked to inhibitory G-proteins (Gi). Three family members (FPR1, FPR2 and FPR3) have been identified in humans and are predominantly found in myeloid cells with varied distribution and have also been reported in multiple organs and tissues. After agonist binding, the FPRs activate a multitude of physiological pathways, such as intra cellular signaling transduction, Ca^2+ mobilization and transcription. The family interacts with a diverse set of ligands that includes proteins, polypeptides and fatty acid metabolites which activate both pro-inflammatory and pro-resolution downstream responses. FPR2 and FPR1 Cyclic Adenosine Monophosphate (cAMP) Assays were used to measure the activity of the compounds in this patent.
(§2) FPR2 and FPR1 Cyclic Adenosine Monophosphate (cAMP) Assays. A mixture of forskolin (5 μM final for FPR2 or 10 μM final for FPR1) and IBMX (200 μM final) were added to 384-well Proxiplates (Perkin-Elmer) pre-dotted with test compounds in DMSO (1% final) at final concentrations in the range of 0.020 nM to 100 μM. Chinese Hamster Ovary cells (CHO) overexpressing human FPR1 or human FPR2 receptors were cultured in F-12 (Ham's) medium supplemented with 10% qualified FBS, 250 μg/mL zeocin and 300 μg/mL hygromycin (Life Technologies). Reactions were initiated by adding 2,000 human FPR2 cells per well or 4,000 human FPR1 cells per well in Dulbecco's PBS (with calcium and magnesium) (Life Technologies) supplemented with 0.1% BSA (Perkin-Elmer). The reaction mixtures were incubated for 30 min at rt. The level of intracellular cAMP was determined using the HTRF HiRange cAMP assay reagent kit (Cisbio) according to manufacturer's instruction. Solutions of cryptate conjugated anti-cAMP and d2 flurorophore-labelled cAMP were made in a supplied lysis buffer separately. Upon completion of the reaction, the cells were lysed with equal volume of the d2-cAMP solution and anti-cAMP solution. After a 1-h rt incubation, time-resolved fluorescence intensity was measured using the Envision (Perkin-Elmer) at 400 nm excitation and dual emission at 590 nm and 665 nm. A calibration curve was constructed with an external cAMP standard at concentrations ranging from 1 μM to 0.1 μM by plotting the fluorescent intensity ratio from 665 nm emission to the intensity from the 590 nm emission against cAMP concentrations. The potency and activity of a compound to inhibit cAMP production was then determined by fitting to a 4-parametric logistic equation from a plot of cAMP level versus compound concentrations.
(§3) The examples disclosed below were tested in the FPR2 and FPR1 cAMP assay described above and found having FPR2 and/or FPR1 agonist activity. Table 1 below lists EC50 values in the FPR2 and FPR1 cAMP assays measured for the following examples.

Assay [2] deals with T2, human FPR1 receptors (Homo sapiens, UniProt P21462).
T2 sequence (P21462 1-350): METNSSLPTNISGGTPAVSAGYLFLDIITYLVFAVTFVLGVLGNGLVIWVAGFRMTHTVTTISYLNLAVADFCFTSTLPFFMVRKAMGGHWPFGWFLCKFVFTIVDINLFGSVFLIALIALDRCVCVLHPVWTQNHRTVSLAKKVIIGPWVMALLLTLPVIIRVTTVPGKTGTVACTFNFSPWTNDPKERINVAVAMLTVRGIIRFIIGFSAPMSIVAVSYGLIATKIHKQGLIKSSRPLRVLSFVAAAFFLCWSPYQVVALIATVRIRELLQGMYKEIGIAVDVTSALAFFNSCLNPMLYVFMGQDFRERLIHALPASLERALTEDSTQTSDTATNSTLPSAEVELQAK
Kind of assay: FPR1 cyclic adenosine monophosphate (cAMP) assay. In kind it is cell-based. The conditions noted are these: CHO cells overexpressing human FPR1; forskolin 10 μM, IBMX 200 μM; 30 min at rt; inhibition of cAMP production (HTRF); read-out: hFPR1 cAMP EC50.
From the text: as §1, §2, §3

Take `CP(C)(=O)c1ccccc1-c1cc(F)c(N2CCC[C@@H](NC(=O)Nc3ccc(C(F)(F)F)cc3F)C2=O)c(F)c1` [Example 11, 3-[(3R)-1-[2′-(Dimethylphosphoryl)-3,5-difluoro-[1,1′-biphenyl]-4-yl]-2-oxopiperidin-3-yl]-1-[2-fluoro-4-(trifluoromethyl)phenyl] urea]: the EC50 (commonly the midpoint of the concentration-response curve) in assay [1] is 2.6 nM; in assay [2] it was 1700 nM.

Turning to `CP(C)(=O)c1ccccc1-c1ccc(N2CCC[C@@H](NC(=O)Nc3ccc(OC(F)(F)F)cc3)C2=O)c(F)c1F` [Example 10, 3-[(3R)-1-[2′-(Dimethylphosphoryl)-2,3-difluoro-[1,1′-biphenyl]-4-yl]-2-oxopiperidin-3-yl]-1-[4-(trifluoromethoxy)phenyl] urea], the EC50 in assay [1] worked out at 1.4 nM; in assay [2], 370 nM.

In the case of `CCP(=O)(CC)c1ccccc1-c1ccc(N2CCC[C@@H](NC(=O)Nc3ncc(Cl)cc3F)C2=O)c(F)c1F` [Example 14, 1-(5-Chloro-3-fluoropyridin-2-yl)-3-[(3R)-1-[2′-(diethylphosphoryl)-2,3-difluoro-[1,1′-biphenyl]-4-yl]-2-oxopiperidin-3-yl]urea], the concentration for a half-maximal effect (EC50) came out at 6 nM in assay [1] and 1500 nM in assay [2].

The record behind these values is US20220298186A1, “BIARYL DIALKYL PHOSPHINE OXIDE FPR2 AGONISTS” (BRISTOL-MYERS SQUIBB COMPANY, priority 2019, published 2022).
